Measured values: patent US7135457B1, “Random peptides that bind to gastro-intestinal tract (GIT) transport receptors and related methods” (Cytogen Corporation, priority 1997, dated 2006)
Square brackets hold non-standard residues; d marks the D form. Peptide text beside a SMILES is read from it. * marks the point of attachment. Dansyl = CN(C)c1cccc2c(S(=O)(=O)*)cccc12

Columns and labels:
[1] = Peptide stability in simulated intestinal fluid (SIF); format: in vitro ADME; conditions: rank of relative stability to SIF, 1 = most stable
Method: The relative stability for ZElan031, ZElan053 and ZElan054 was determined in simulated intestinal fluid (SIF) SIF was made by dissolving 100 mg of pancreatin (Sigma cat# P-5 1625, lot# 122H0812) in 8.4 ml of phosphate stock solution, adjusting the pH to 7.5 with 0.2N NaOH and adjusting the volume to 10 ml with water.
Peptide (3.25 mg) was dissolved in 3.25 ml of 10,000 fold diluted SIF solution at 37° C. Aliquots (0.7 ml) of the digestion solution were then withdrawn at <1 min, 1 h, 3 h, and 21 h or 24 h. The samples were quickly passed through a syringe filter (Millipore Millex-GV 0.22 μm, part# SLGV025LS, lot# H2BM95250) and 300 μL of the filtered solution was immediately injected onto a Hewlett-Packard HPLC system equipped with a C-8 column (Applied Biosystems column and guard column: column-p/n 0711-0023 Spheri-5 ODS 5 μm, 220×4.6 mm). The products were eluted at 1.5 ml/min using an acetonitrile-water gradient. The major fluorescent peaks were collected, lyopholized and identified by MS analysis.

[2] = tested on: P100 fractions harvested from Caco-2 cells; assay: Binding of dansylated peptides to P100 fractions and peptide/particle correlation; conditions: two consecutive assays; versus scrambled PAX2 control
Method: Binding of peptide and/or peptide-coated PLGA particles to membrane (P100) and cytosolic (S100) fractions was assessed by detection of the dansyl moiety incorporated in the peptide. Costar ninety six well ELISA plates were coated with S100 and P100 fractions (100 μg/ml in 0.05 M NaHCO3) overnight at 4° C. The plates were blocked with 0.5% bovine serum albumin in DPBS for 1 h at room temperature and washed 3 times in 1% BSA-DPBS. Peptide-coated particles or peptides were dispersed in the same buffer and added to the plates at concentrations in the range 0.0325-0.5 mg/well. […] The plates were incubated for 1 h at room temperature. The wells were washed 3 times in 1% BSA-DPBS and 100 μl of goat anti-mouse IgGλ:HRP antibody (Southern Biotechnology 1060-05; 1:10,000) was added per well. The plates were incubated for 1 h at room temperature. After washing 3 times in 1% BSA-DPBS 100 μl of TMB substrate (3,3′,5′,5-tetramethylbenzidine; Microwell Peroxidase Substrate System (Kirkegaard and Perry Laboratories 50-76-00)) was added and the optical density was measured at 650 nm at various time intervals.
Binding of dansylated peptides to P100 fractions was assessed to determine if peptide binding was predictive of peptide-coated particle binding.

[3] = tested on: fixed Caco-2 or C2BBe1 cells; assay: ELISA of GST fusion proteins on fixed Caco-2 or C2BBe1 cells; format: binding; conditions: Caco-2
Method: Fixed Caco-2, C2BBe1, and A431 cell plates were prepared by growing cells on tissue culture treated microtiter plates. When cells were confluent, plates were fixed with 10% formaldehyde, washed twice with PBS and stored with 0.5% BSA-PBS at −20° C. […] The standard ELISA procedure was followed at this point.
The standard ELISA procedure was modified as follows. GST proteins were diluted to an appropriate concentration in PBS containing 1% BSA and 0.05% Tween20 (1% BPT), titered and incubated one hour at room temperature. Following five washes an anti-GST monoclonal antibody was added (Sigma, St. Louis Clone GST-2 diluted 1:10,000 in 1% BPT) and incubated one hour. After five more washes goat anti-mouse IgG2b-HRP was added (Southern Biotechnology Associates Inc., Birmingham, Ala., diluted 1:4000 in 1% BPT) and incubated one hour. After five washes plates were developed with TMB peroxidase substrate (Kirkegard and Perry, Gaithersburg, Md.). All data is presented with background binding subtracted.

[4] = tested on: polarized Caco-2 monolayers; assay: Transport and uptake of GST-peptide fusions across/into polarized Caco-2 monolayers (anti-GST ELISA); format: in vitro ADME; conditions: 100 μg/ml GST fusion
Method: Transport and uptake of GST-peptide fusions and deletion derivatives across cultured polarized Caco-2 monolayers over 4 hours in HBSS buffer was examined using an anti-GST ELISA assay. In another experiment, transport and uptake of GST-peptide fusions and deletion derivatives across cultured polarized Caco-2 monolayers over 24 hours in serum-free medium (SFM) was examined using an anti-GST ELISA assay.
a) 4 h HBSS study: Transepithelial electrical flux (TER) across the Caco-2 monolayers grown on snapwells (passage 33; 23 days old) was measured to confirm monolayer integrity before beginning the experiment. The medium was removed and the cells were washed once with bHBSS. bHBSS containing 100 μM chloroquine was added and the cells were incubated for 2 h at 37° C. The bHBSS+chloroquine was replaced with 0.5 ml bHBSS containing GST-peptide fusions (100 μg/ml) and the cells were incubated as before. […] At 4 h, TER was measured, the apical medium was sampled and the apical reservoir was washed 6 times with HBSS. […]
b) 24 h SFM study: Transepithelial electrical flux (TER) across the Caco-2 monolayers grown on snapwells (passage 33; 23 days old) was measured to confirm monolayer integrity before beginning the experiment. […] After 24 hours, TER readings were taken, and samples from the basolateral and apical reservoirs were removed. […]

fixed Caco-2 cells = assay: Effect of thrombin cleavage on binding of GST-peptide fusions to fixed Caco-2 cells; conditions: Caco-2
Method: Binding of intact and thrombin-cleaved GST-peptide fusions to fixed Caco-2 cells was compared.
Thirty micrograms of each GST-peptide was treated with bovine thrombin (1μ/ml; 0.4 NIH units; Sigma CN.T9681) for 18 h at room temperature in 20 mM Tris-HCl pH8.0, 150 mM NaCl, 2.5 mM CaCl2. Controls were similarly treated without addition of thrombin. Ten micrograms of each GST-peptide fusion was removed for PAGE analysis, and 10 μg of fusions were added in duplicate to the fixed Caco-2 cells before 5-fold serial dilutions (1% BPT diluent). The fusions were allowed to bind for 1 h at room temperature. Following 6 washes with 1% BPT, binding was assayed by ELISA.

[5] = Crossreactive binding of GST fusions to dansylated peptides; conditions: 0.5 μg/ml GST fusion

Row | Compound | Rel. Stab. [1] | binding of dansylated peptide to P100 fractions [2] | binding to fixed Caco-2 or C2BBe1 cells relative to GST control [3] | transport (flux) across live Caco-2 monolayers, apical to basolateral [4] | effect of thrombin cleavage on detection of binding to fixed Caco-2 cells (fixed Caco-2 cells) | crossreactive binding to ZElan024 (P31) and ZElan018 (PAX2) [5]
1 | C[C@@H](O)[C@H](NC(=O)[C@@H](N)CCCCNS(=O)(=O)c1cccc2c(N(C)C)cccc12)C(=O)N[C@H](CCCNC(=N)N)C(=O)N[C@@H](CCCCN)C(=O)N[C@@H](CO)C(=O)N[C@@H](CO)C(=O)N[C@H](CCCNC(=N)N)C(=O)N[C@@H](CO)C(=O)N[C@@H](CC(N)=O)C(=O)N1CCC[C@H]1C(=O)N[C@H](CCCNC(=N)N)C(=O)NCC(=O)N[C@H](CCCNC(=N)N)C(=O)N[C@H](CCCNC(=N)N)C(=O)N[C@@H](Cc1c[nH]cn1)C(=O)N1CCC[C@H]1C(=O)NCC(N)=O [ZElan053, H2N-K(dns)TrKSSrSNPrGrrHPG-CONH2] (H-K(Dansyl)T[dR]KSS[dR]SNP[dR]G[dR][dR]HPG-NH2) | 1 | binding at the highest dilution only |  |  |  | 
2 | gst-RYKHDIGCDAGVDKKSSSVRGGCGAHSSPPRAGRGPRGTMVSRL [GST-DCX8] |  |  | bound | higher flux than GST alone | significantly reduced | 
3 | gst-SARDSCPAEDGSRAVRLNGVENANTRKSSRSNPRGRRHP [GST-P31] |  |  | bound | higher flux than GST alone |  | no crossreactive binding
